Reference: ChEMBL document CHEMBL1201862, “PubChem BioAssay data set” (2004)
Active and inactive are the calls of the source.

How the values were obtained:
[1] = biological target: T1, High affinity choline transporter 1 (Homo sapiens, UniProt Q9GZV3); assay: human choline transporter blockers, potency – cell-based, 5-point CRC, membrane potential dye, dose response (AID 504840); format: functional
T1 sequence (Q9GZV3 whole entry): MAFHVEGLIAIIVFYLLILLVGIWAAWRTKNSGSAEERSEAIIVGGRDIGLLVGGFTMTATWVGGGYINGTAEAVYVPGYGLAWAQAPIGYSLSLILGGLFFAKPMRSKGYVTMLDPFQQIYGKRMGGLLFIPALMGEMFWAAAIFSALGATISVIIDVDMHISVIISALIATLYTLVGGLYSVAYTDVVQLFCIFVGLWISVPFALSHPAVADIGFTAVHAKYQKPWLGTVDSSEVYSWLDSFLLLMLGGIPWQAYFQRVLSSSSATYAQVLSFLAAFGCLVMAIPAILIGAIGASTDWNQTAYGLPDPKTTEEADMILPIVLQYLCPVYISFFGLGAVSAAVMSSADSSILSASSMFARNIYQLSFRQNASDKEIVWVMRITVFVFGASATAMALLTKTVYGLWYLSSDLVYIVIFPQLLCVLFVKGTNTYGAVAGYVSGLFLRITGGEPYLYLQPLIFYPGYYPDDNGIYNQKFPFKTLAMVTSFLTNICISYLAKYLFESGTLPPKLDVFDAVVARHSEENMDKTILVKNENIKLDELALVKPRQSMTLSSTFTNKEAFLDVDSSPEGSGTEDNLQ

[2] = biological target: T1, High affinity choline transporter 1; assay: human choline transporter blockers, potency – cell-based, 10-point CRC, membrane potential dye, dose response (AID 588401); format: functional;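 also: membrane potential dye fluorescence of choline-evoked depolarization via CHT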
[3] = viability of uninfected HEp-2 cells – cell-based, HTS, cytotoxicity control for RSV inhibitor project, dose response (AID 2410); format: functional; details: human respiratory syncytial virus
[4] = cAMP pathway inhibition in counterscreen cell line – TR-FRET cAMP detection, counter-screen for MC4R biased antagonist project, dose response (AID 602305); format: functional, cell-based;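 also: U2OS cells stimulated with forskolin near its EC80 as the cAMP inducer; potency is for inhibition of forskolin-stimulated cAMP signaling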
Cytochrome P450 2D6 = Cytochrome P450 2D6 (Homo sapiens, UniProt P10635);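 also: CYP2D6 member of a cytochrome P450 panel assay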
Melanocortin receptor 4 = Melanocortin receptor 4 (Homo sapiens, UniProt P32245); assay: inhibitors of MC4R cAMP signaling – cell-based, TR-FRET, biased antagonists, dose response (AID 602298); format: functional;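 also: antagonist potency against agonist-stimulated cAMP production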
H9c2 = assay: cells; format: functional, cell-based; details: Rattus norvegicus, H9c2, Myocardium
[5] = biological target: T2, Rac GTPase-activating protein 1 (Homo sapiens, UniProt Q9H0H5); assay: blockers of MgcRacGAP-driven Rac1 GTP hydrolysis – biochemical, ADP Hunter fluorescence, primary and confirmatory, confirmation (AID 624330); format: functional
T2 sequence (Q9H0H5 whole entry): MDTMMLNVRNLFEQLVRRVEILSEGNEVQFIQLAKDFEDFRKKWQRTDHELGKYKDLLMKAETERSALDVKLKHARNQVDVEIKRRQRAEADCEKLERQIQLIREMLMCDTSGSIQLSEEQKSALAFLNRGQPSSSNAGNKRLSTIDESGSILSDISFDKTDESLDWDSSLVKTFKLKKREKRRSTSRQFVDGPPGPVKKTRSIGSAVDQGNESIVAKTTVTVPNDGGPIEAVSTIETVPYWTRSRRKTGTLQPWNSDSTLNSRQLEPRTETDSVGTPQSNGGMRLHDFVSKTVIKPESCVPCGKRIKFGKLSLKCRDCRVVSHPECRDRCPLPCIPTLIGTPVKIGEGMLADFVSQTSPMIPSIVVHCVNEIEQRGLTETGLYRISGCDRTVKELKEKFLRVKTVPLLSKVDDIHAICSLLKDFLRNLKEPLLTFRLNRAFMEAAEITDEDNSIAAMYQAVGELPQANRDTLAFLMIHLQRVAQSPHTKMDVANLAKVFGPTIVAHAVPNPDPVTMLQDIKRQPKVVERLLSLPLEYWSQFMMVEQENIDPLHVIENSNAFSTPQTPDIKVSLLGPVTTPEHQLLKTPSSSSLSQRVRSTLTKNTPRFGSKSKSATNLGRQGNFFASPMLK

Melanocortin receptor 4, sequence (P32245 whole entry): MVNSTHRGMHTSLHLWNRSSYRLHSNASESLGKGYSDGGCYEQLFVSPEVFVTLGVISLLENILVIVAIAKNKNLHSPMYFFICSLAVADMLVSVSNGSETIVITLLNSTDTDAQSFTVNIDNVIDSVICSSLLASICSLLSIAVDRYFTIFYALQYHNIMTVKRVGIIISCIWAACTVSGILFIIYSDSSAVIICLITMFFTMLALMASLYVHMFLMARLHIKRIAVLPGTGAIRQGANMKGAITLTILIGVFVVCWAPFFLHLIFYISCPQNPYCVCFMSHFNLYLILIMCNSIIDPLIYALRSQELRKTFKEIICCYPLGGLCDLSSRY
Cytochrome P450 2D6, sequence (P10635 whole entry): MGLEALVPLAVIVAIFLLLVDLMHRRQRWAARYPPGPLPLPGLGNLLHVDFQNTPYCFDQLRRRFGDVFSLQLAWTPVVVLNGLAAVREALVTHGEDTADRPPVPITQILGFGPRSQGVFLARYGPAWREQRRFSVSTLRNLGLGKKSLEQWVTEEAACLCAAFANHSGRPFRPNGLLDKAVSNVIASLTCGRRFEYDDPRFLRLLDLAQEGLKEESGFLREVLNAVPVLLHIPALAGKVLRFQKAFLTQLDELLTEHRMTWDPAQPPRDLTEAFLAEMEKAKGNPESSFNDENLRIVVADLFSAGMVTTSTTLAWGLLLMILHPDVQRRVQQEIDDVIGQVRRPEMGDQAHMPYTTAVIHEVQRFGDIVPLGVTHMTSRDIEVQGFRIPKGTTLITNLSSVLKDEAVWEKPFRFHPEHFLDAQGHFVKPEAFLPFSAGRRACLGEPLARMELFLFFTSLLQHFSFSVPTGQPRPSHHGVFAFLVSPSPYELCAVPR

## CCc1ccc(C(C)N=C(S)NC2CCCCC2)cc1 (stereo not given)
[1]
  IC50: 7.86 µM (active)
[2]
  IC50: 11.2 µM (active)

## NC(=O)CC(NC(=O)c1ccccc1)c1ccc(N2CCCCCCC2)c([N+](=O)[O-])c1 (stereo not given)
[1]
  IC50: 6.41 µM (active)
[2]
  IC50: 6.21 µM (active)

## COc1ccc(OC)c(C2C3=C(O)CCCC3=NC(C)=C2C(=O)Nc2nc3ccccc3s2)c1 (stereo not given)
[3]
  CC50: 23.1 µM (active)
[4]
  IC50: > 64.6 µM (inactive)
cells
  IC50: 9.83 µM (active)
Cytochrome P450 2D6
  AC50: 22.4 µM (inconclusive)
Melanocortin receptor 4
  IC50: 12.6 µM (inactive)

## CCN(C[C@H]1N[C@@](CC)(C(=O)OC)[C@H]2C(=O)N(Cc3ccccc3)C(=O)[C@@H]12)C(=O)c1ccc(C(C)(C)C)cc1
[4]
  IC50: > 64.6 µM (inactive)
H9c2
  IC50: > 79 µM (inactive)
Melanocortin receptor 4
  IC50: > 64.6 µM (inactive)

## CCOC(=O)c1sc(S)nc1C
[4]
  IC50: 44.7 µM (inactive)
[5]
  IC50: 50 µM (active)
Melanocortin receptor 4
  IC50: 18.2 µM (inactive)
